Laboratory results from US12577267B2, “Pyrimidine compounds for use as MAP4K1 inhibitors” (GLENMARK SPECIALITY S.A., priority 2021, dated 2026).
Where a name gives a salt, the structure may show the parent alone. Read-outs that look alike come from different tables or passages of the source.

Target: MAP4K-1 enzyme (Homo sapiens, UniProt Q92918)
Assay: FRET one step binding assay (tracer displacement)
Conditions: for inhibition at 1 µM / % Inhibition at 1 μM: 1 μM compound; for inhibition at 10 µM / % Inhibition at 10 μM: 10 μM compound
Method: This is a one step binding assay based on the binding and displacement of the labeled tracer, where compound addition is followed by addition of the anti-GST tagged europium (Eu) as the donor and Alexa Fluor-labeled tracer as the acceptor.
Test compounds were dissolved in dimethylsulfoxide (DMSO) to prepare 10.0 mM stock solutions and diluted to the desired concentration. The final concentration of DMSO in the reaction was 3% (v/v). The assay mixture was prepared by mixing 2 nM of the Eu-Anti-GST Antibody and 5 nM MAP4K-1 enzyme in the Kinase buffer containing 50 mM HEPES (pH 7.5), 10 mM MgCl2, 1 mM EGTA, 0.01% Brij-35 with or without the desired concentration of the compound. The reaction was incubated on ice for 15 min. […] After shaking for 5 min the reaction was further incubated for 1 hour at room temperature and this was kept at 4° C. and read on ARTEMIS reader as per the kit instructions (Thermo). […] The activity was calculated as percent of control reaction. IC50 values were calculated from dose response curve by nonlinear regression analysis using GraphPad Prism software.

Chain of MAP4K-1 enzyme (Q92918 whole entry): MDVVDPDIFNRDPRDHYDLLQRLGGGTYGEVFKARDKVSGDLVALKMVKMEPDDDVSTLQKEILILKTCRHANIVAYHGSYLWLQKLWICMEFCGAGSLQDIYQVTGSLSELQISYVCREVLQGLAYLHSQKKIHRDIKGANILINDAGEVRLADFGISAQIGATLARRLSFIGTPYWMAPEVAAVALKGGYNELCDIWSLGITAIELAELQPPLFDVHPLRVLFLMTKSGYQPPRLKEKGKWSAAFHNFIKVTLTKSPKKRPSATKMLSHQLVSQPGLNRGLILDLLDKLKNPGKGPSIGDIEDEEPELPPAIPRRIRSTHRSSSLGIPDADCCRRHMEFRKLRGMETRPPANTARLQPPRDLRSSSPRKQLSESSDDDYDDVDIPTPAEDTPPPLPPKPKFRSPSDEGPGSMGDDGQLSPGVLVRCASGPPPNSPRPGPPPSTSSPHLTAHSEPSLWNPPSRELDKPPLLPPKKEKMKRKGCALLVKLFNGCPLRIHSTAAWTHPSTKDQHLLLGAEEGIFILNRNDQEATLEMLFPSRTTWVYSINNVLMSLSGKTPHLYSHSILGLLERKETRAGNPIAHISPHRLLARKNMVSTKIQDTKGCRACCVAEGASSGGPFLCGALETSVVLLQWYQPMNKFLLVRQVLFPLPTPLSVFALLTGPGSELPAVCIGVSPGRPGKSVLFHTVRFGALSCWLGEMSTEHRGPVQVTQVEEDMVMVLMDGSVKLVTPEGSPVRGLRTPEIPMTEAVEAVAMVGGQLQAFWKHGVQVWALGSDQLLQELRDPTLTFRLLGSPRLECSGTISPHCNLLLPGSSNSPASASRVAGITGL

| IC50 (read-out: IC50) [nM] | Structure (SMILES) | inhibition at 1 µM [%] | inhibition at 10 µM [%] | IC50 (IC50 (nM)) [nM] | % Inhibition at 1 μM [%] | % Inhibition at 10 μM [%] | % Inhibition at 1 μM (1 µM) [%] | % Inhibition at 10 μM (10 µM) [%] |
| --- | --- | --- | --- | --- | --- | --- | --- | --- |
|  | COc1cc2c(cc1Nc1ncc(Cl)c(Nc3c(F)cc(OS(=O)(=O)F)cc3P(C)(C)=O)n1)CN(C)CC2 [Example 14, 4-((5-Chloro-2-((6-methoxy-2-methyl-1,2,3,4-tetrahydroisoquinolin-7-yl)amino)pyrimidin-4-yl)amino)-3-(dimethylphosphoryl)-5-fluorophenylsulfurofluoridate dihydrochloride] | 89.7 | 93.3 | < 50 |  |  |  |  |
|  | COc1cc2c(cc1Nc1ncc(Cl)c(Nc3ncc(OS(=O)(=O)F)cc3P(C)(C)=O)n1)C(C)N(C)CC2 (single isomer, unassigned; isomer 2) [Example 24, 6-((5-Chloro-2-((6-methoxy-1,2-dimethyl-1,2,3,4-tetrahydroisoquinolin-7-yl)amino)pyrimidin-4-yl)amino)-5-(dimethylphosphoryl)pyridin-3-yl sulfofluoridate dihydrochloride (Isomer 2)] |  |  | < 50 |  |  | 86.68 | 85.52 |
|  | COc1cc2c(cc1Nc1ncc(Cl)c(Nc3ccc(OS(=O)(=O)F)cc3P(C)(C)=O)n1)C(C)N(C)CC2 (racemic) [Example 12, ±4-((5-chloro-2-((6-methoxy-1,2-dimethyl-1,2,3,4-tetrahydroisoquinolin-7-yl)amino)pyrimidin-4-yl)amino)-3-(dimethylphos-phoryl)phenylsulfurofluoridate dihydrochloride] | 87.5 | 85.9 | < 50 |  |  |  |  |
|  | [2H]C([2H])([2H])Oc1cc2c(cc1Nc1ncc(Cl)c(Nc3ccc(OS(=O)(=O)F)cc3P(C)(C)=O)n1)C([2H])([2H])NCC2 [Example 40, 4-((5-Chloro-2-((6-methoxy-d3-1,2,3,4-tetrahydroisoquinolin-7-yl-1,1-d2)amino)pyrimidin-4-yl)amino)-3-(dimethylphosphoryl)phenyl sulfofluoridate dihydrochloride] | 83.3 | 84 | < 50 |  |  |  |  |
|  | COc1cc2c(cc1Nc1ncc(Cl)c(Nc3ccc(OS(=O)(=O)F)cc3P(C)(C)=O)n1)CN(C1COC1)CC2 [Example 16, 4-((5-Chloro-2-((6-methoxy-2-(oxetan-3-yl)-1,2,3,4-tetrahydroisoquinolin-7-yl)amino)pyrimidin-4-yl)amino)-3-(dimethylphosphoryl)phenyl sulfurofluoridate dihydrochloride] | 87.3 | 86 | < 50 |  |  |  |  |
|  | [2H]C([2H])([2H])Oc1cc2c(cc1Nc1ncc(Cl)c(Nc3ccc(OS(=O)(=O)F)cc3P(C)(C)=O)n1)CNCC2 [Example 39, 4-((5-Chloro-2-((6-methoxy-d3-1,2,3,4-tetrahydroisoquinolin-7-yl)amino)pyrimidin-4-yl)amino)-3-(dimethylphosphoryl)phenyl sulfofluoridate dihydrochloride] | 75.1 | 87 | < 50 |  |  |  |  |
| < 50 | COc1cc2c(cc1Nc1ncc(Cl)c(Nc3ccc(OC4COC4)cc3P(C)(C)=O)n1)CN(C)CC2 [Example 51, (2-((5-Chloro-2-((6-methoxy-2-methyl-1,2,3,4-tetrahydroisoquinolin-7-yl)amino)pyrimidin-4-yl)amino)-5-(oxetan-3-yloxy)phenyl)dimethyl phosphine oxide] | 93.1 | 94.3 |  |  |  |  |  |
|  | COc1cc2c(cc1Nc1ncc(Cl)c(Nc3cc(OS(=O)(=O)F)ccc3P(C)(C)=O)n1)C(C)N(C)CC2 (single isomer, unassigned; isomer 1) [Example 31, 3-((5-Chloro-2-((6-methoxy-1,2-dimethyl-1,2,3,4-tetrahydroisoquinolin-7-yl)amino)pyrimidin-4-yl)amino)-4-(dimethylphosphoryl)phenyl sulfofluoridate dihydrochloride (Isomer 1)] | 84.4 | 89 | < 50 |  |  |  |  |
| < 50 | COc1cc2c(cc1Nc1ncc(Cl)c(Nc3ccc(S(C)(=N)=O)cc3P(C)(C)=O)n1)CN(C)CC2 (stereo not drawn) [Example 58, (2-((5-Chloro-2-((6-methoxy-2-methyl-1,2,3,4-tetrahydroisoquinolin-7-yl)amino)pyrimidin-4-yl)amino)-5-(S-methylsulfonimidoyl)phenyl)dimethylphosphine oxide] | 96.6 | 96.4 |  |  |  |  |  |
| < 50 | COc1cc2c(cc1Nc1ncc(Cl)c(Nc3ccc(NC(=O)CCl)cc3P(C)(C)=O)n1)CN(C)CC2 [Example 56, 2-Chloro-N-(4-((5-chloro-2-((6-methoxy-2-methyl-1,2,3,4-tetrahydroisoquinolin-7-yl)amino)pyrimidin-4-yl)amino)-3-(dimethylphosphoryl)phenyl)acetamide hydrochloride] | 88.7 | 88.2 |  |  |  |  |  |
|  | COc1cc2c(cc1Nc1ncc(Cl)c(Nc3ccc(OS(=O)(=O)F)cc3P(C)(C)=O)n1)C(C)(C)N(C)CC2 [Example 11, 4-((5-Chloro-2-((6-methoxy-1,1,2-trimethyl-1,2,3,4-tetrahydroisoquinolin-7-yl)amino)pyrimidin-4-yl)amino)-3-(dimethylphosphoryl)phenyl sulfurofluoridate dihydrochloride] | 75.1 | 87.2 | < 50 |  |  |  |  |
| < 50 | COCCOc1ccc(Nc2nc(Nc3cc4c(cc3OC)CCN(C)C4)ncc2Cl)c(P(C)(C)=O)c1 [Example 50, (2-((5-Chloro-2-((6-methoxy-2-methyl-1,2,3,4-tetrahydroisoquinolin-7-yl)amino)pyrimidin-4-yl)amino)-5-(2-methoxyethoxy)phenyl)dimethyl phosphine oxide] | 92.7 | 94.8 |  |  |  |  |  |
|  | COc1cc2c(cc1Nc1ncc(Cl)c(Nc3ccc(OS(=O)(=O)F)cc3P(C)(C)=O)n1)C(=O)N(C)CC2 [Example 17, 4-((5-Chloro-2-((6-methoxy-2-methyl-1-oxo-1,2,3,4-tetrahydroisoquinolin-7-yl)amino)pyrimidin-4-yl)amino)-3-(dimethylphosphoryl)phenyl sulfurofluoridatehydrochloride] | 86.6 | 90.2 | < 50 |  |  |  |  |
|  | COc1cc2c(cc1Nc1ncc(Cl)c(Nc3c(C)cc(OS(=O)(=O)F)cc3P(C)(C)=O)n1)CN(C)CC2 [Example 15, 4-((5-Chloro-2-((6-methoxy-2-methyl-1,2,3,4-tetrahydroisoquinolin-7-yl)amino)pyrimidin-4-yl)amino)-3-(dimethylphosphoryl)-5-methylphenyl sulfurofluoridate dihydrochloride] | 78.6 | 91.8 | > 500 |  |  |  |  |
|  | COc1cc2c(cc1Nc1ncc(Cl)c(Oc3ccc(OS(=O)(=O)F)cc3P(C)(C)=O)n1)CN(C)CC2 [Example 60, 4-((5-Chloro-2-((6-methoxy-2-methyl-1,2,3,4-tetrahydroisoquinolin-7-yl)amino)pyrimidin-4-yl)oxy)-3-(dimethylphosphoryl)phenylsulfofluoridate dihydrochloride] | 70.5 | 83.4 | 100 to 500 |  |  |  |  |
|  | COc1cc2c(cc1Nc1ncc(Cl)c(Nc3ccc(N(C)S(=O)(=O)F)cc3P(C)(C)=O)n1)C(C)N(C)CC2 (racemic) [Example 44, ±(4-((5-Chloro-2-((6-methoxy-1,2-dimethyl-1,2,3,4-tetrahydroisoquinolin-7-yl)amino)pyrimidin-4-yl)amino)-3-dimethylphosphoryl)phenyl) (methyl)sulfamoylfluoride dihydrochloride] | 81.6 | 79.6 | < 50 |  |  |  |  |
| < 50 | COc1cc2c(cc1Nc1ncc(Cl)c(Nc3ccc(OC(F)F)cc3P(C)(C)=O)n1)CN(C)CC2 [Example 45, (2-((5-Chloro-2-((6-methoxy-2-methyl-1,2,3,4-tetrahydroisoquinolin-7-yl)amino)pyrimidin-4-yl)amino)-5-(difluoromethoxy)phenyl)dimethylphosphineoxide] | 74.8 | 79 |  |  |  |  |  |
|  | COc1cc2c(cc1Nc1ncc(Cl)c(Nc3cc(OS(=O)(=O)F)ccc3P(C)(C)=O)n1)CN(C)CC2 [Example 18, 3-((5-Chloro-2-((6-methoxy-2-methyl-1,2,3,4-tetrahydroisoquinolin-7-yl)amino)pyrimidin-4-yl)amino)-4-(dimethylphosphoryl)phenyl sulfurofluoridate dihydrochloride] | 87.3 | 83.2 | < 50 |  |  |  |  |

| Structure (SMILES) | IC50 (read-out: IC50) [nM] | inhibition at 1 µM [%] | inhibition at 10 µM [%] | IC50 (IC50 (nM)) [nM] | % Inhibition at 1 μM [%] | % Inhibition at 10 μM [%] | % Inhibition at 1 μM (1 µM) [%] | % Inhibition at 10 μM (10 µM) [%] |
| --- | --- | --- | --- | --- | --- | --- | --- | --- |
| COc1cc2c(cc1Nc1ncc(Cl)c(Nc3cnc(OS(=O)(=O)F)cc3P(C)(C)=O)n1)CN(C)CC2 [Example 37, 5-((5-Chloro-2-((6-methoxy-2-methyl-1,2,3,4-tetrahydroisoquinolin-7-yl)amino)pyrimidin-4-yl)amino)-4-(dimethylphosphoryl)pyridin-2-ylsulfofluoridate] | < 50 |  |  |  | 84.45 | 84.73 |  |  |
| COc1nc2c(cc1Nc1ncc(Cl)c(Nc3ccc(OS(=O)(=O)F)cc3P(C)(C)=O)n1)CN(C)CC2 [Example 22, 4-((5-Chloro-2-((2-methoxy-6-methyl-5,6,7,8-tetrahydro-1,6-naphthyridin-3-yl)amino)pyrimidin-4-yl)amino)-3-(dimethylphosphoryl)phenyl sulfofluoridate] | < 50 |  |  |  | 75.12 | 82.60 |  |  |
